# Key:
# [1] = Plasma stability in frozen human plasma; assay type: in vitro ADME; conditions: 37° C., 10% CO2, read-out: T1/2 Human Plasma (converted)
# Protocol: (§1) Plasma stability of the compounds 1-19 (1 μM) was evaluated in frozen monkey and human plasma at 37° C. in a 10% CO2 environment. The stability of the analyte was assessed by determining the percentage of drug loss over the course of 0, 0.25, 0.5, 1, and 3 hr. In addition, the appearance of Compound A was determined for the same time course. Percent of drug loss as based on ratio with internal standard. Analyte concentrations were measured by LC/MS/MS. Linear regression was performed with log transformed percent of average TO values and linear time values. The elimination rate constant (ke) was calculated from the slope of this regression line and the half-life (T1/2) calculated based on the elimination rate constant.
# [2] = Plasma stability in frozen monkey plasma; assay type: in vitro ADME; conditions: 37° C., 10% CO2, read-out: T1/2 Monkey Plasma (converted)
# Protocol: as §1
# [3] = Aqueous solubility (slurry in pH 7 buffer, UPLC); assay type: physicochemical; conditions: pH 7.0 phosphate buffer, amorphous material; for solubility: aqueous buffer, thermodynamic from solid, read-out: Aqu. Solubility
# Protocol: Aqueous solubility of the compounds was measured by suspending, sonicating (30 minutes), and slurrying (2 hours, 1000 rpm) excess solid (typically 5-10 mg) in phosphate buffered saline at pH 7, or equivalent pH 7 buffer. The suspension was then sonicated again for 30 minutes and stirred again at 1000 rpm for at least 6-24 hours. Approximately 400 μL of sample was removed and placed into spin filters. Each sample was spun at 14K rpm for 10 minutes using a 0.45 μm PVDF spin filter. A portion of the filtrate was removed and diluted with 1:1 ACN:H2O. The resultant samples were analyzed using UPLC analysis. Retains of the solids were checked by XRPD to determine if the material was crystalline or amorphous. Solubility of Compound A was measured at 140 μg/mL at pH 7.4 in PBS buffer solution.
Compound,half-life at 1 μM [1] [min],half-life at 1 μM [2] [min],solubility [3] [µg/mL],Aqu. Solubility [3]
"CCCCCOC(=O)N(Cc1nnc(C)s1)c1cc(OC[C@H]2C[C@@H]2c2ccc(C)cn2)nc(C)n1 [Compound 4, Pentyl ((5-methyl-1,3,4-thiadiazol-2-yl)methyl)(2-methyl-6-(((1S,2S)-2-(5-methylpyridin-2-yl)cyclopropyl)methoxy)pyrimidin-4-yl)carbamate]",412,104,0.008,
"Cc1ccc([C@H]2C[C@@H]2COc2cc(N(Cc3nnc(C)s3)Sc3ccccc3)nc(C)n2)nc1 [Compound 2, N-((5-Methyl-1,3,4-thiadiazol-2-yl)methyl)-N-(2-methyl-6-(((1S,2S)-2-(5-methylpyridin-2-yl)cyclopropyl)methoxy)pyrimidin-4-yl)-S-phenylthiohydroxylamine]",17.4,4.8,,BLQ
"Cc1ccc([C@H]2C[C@@H]2COc2cc(N(Cc3nnc(C)s3)C(=O)OCc3oc(=O)oc3C)nc(C)n2)nc1 [Compound 1, (5-Methyl-2-oxo-1,3-dioxol-4-yl)methyl ((5-methyl-1,3,4-thiadiazol-2-yl)methyl)(2-methyl-6-(((1S,2S)-2-(5-methylpyridin-2-yl)cyclopropyl)methoxy)pyrimidin-4-yl)carbamate]",3.6,6.6,2.3,
"Cc1ccc([C@H]2C[C@@H]2COc2cc(N(Cc3nnc(C)s3)C(=O)c3ccccc3)nc(C)n2)nc1 [Compound 3, N-((5-Methyl-1,3,4-thiadiazol-2-yl)methyl)-N-(2-methyl-6-(((1S,2S)-2-(5-methylpyridin-2-yl)cyclopropyl)methoxy)pyrimidin-4-yl)benzamide]",182,69,19,
"Cc1ccc([C@H]2C[C@@H]2COc2cc(N(Cc3nnc(C)s3)C(=O)OCOC(=O)c3ccccc3)nc(C)n2)nc1 [Compound 5, ((((5-Methyl-1,3,4-thiadiazol-2-yl)methyl)(2-methyl-6-(((1S,2S)-2-(5-methylpyridin-2-yl)cyclopropyl)methoxy)pyrimidin-4-yl)carbamoyl)oxy)methyl benzoate]",104,78.6,0.02,
"CCC(=O)OCOC(=O)N(Cc1nnc(C)s1)c1cc(OC[C@H]2C[C@@H]2c2ccc(C)cn2)nc(C)n1 [Compound 7, ({(2-Methvl-6-{[(1S,2S)-2-(5-methylpyridin-2-yl)cyclopropyl]methoxy}pyrimidin-4-yl)[(5-methyl-1,3,4-thiadiazol-2-yl)methyl|carbamoyl}oxy)methyl propanoate]",4.8,5.4,15,
"CCCCCC(=O)OCOC(=O)N(Cc1nnc(C)s1)c1cc(OC[C@H]2C[C@@H]2c2ccc(C)cn2)nc(C)n1 [Compound 6, ({(2-Methyl-6-{[(1S,2S)-2-(5-methylpyridin-2-yl)cyclopropyl]methoxylpyrimidin-4-yl)[(5-methyl-1,3,4-thiadiazol-2-yl)methyl]carbamoyl}oxy)methyl hexanoate]",21,14.4,0.02,
"Cc1ccc([C@H]2C[C@@H]2COc2cc(N(Cc3nnc(C)s3)C(=O)OCOC(=O)c3ccccn3)nc(C)n2)nc1 [Compound 9, ({(2-Methyl-6-{[(1S,2S)-2-(5-methylpyridin-2-yl)cyclopropyl]methoxy}pyrimidin-4-yl)[(5-methyl-1,3.4-thiadiazol-2-yl)methyl]carbamoyl}oxy)methyl pyridine-2-carboxylate]",7.2,6,0.058,
"Cc1ccc([C@H]2C[C@@H]2COc2cc(N(Cc3nnc(C)s3)C(=O)OCOC(=O)c3ccncc3)nc(C)n2)nc1 [Compound 8, ({(2-Methyl-6-{[(1S,2S)-2-(5-methylpyridin-2-yl)cyclopropyl]methoxy}pyrimidin-4-yl)[(5-methyl-1,3,4-thiadiazol-2-yl)methyl]carbamoyl}oxy)methyl pyridine-4-carboxylate]",11.4,9.6,0.139,

# Continued, values first:
half-life at 1 μM [1] [min],half-life at 1 μM [2] [min],solubility [3] [µg/mL],Aqu. Solubility [3],Compound
126,54,0.02,,"COc1ccccc1C(=O)OCOC(=O)N(Cc1nnc(C)s1)c1cc(OC[C@H]2C[C@@H]2c2ccc(C)cn2)nc(C)n1 [Compound 14, ({(2-Methyl-6-{[(1S,2S)-2-(5-methylpyridin-2-yl)cyclopropyl]methoxy}pyrimidin-4-yl)[(5-methyl-1,3,4-thiadiazol-2-yl)methyl]carbamoyl}oxy)methyl 2-methoxybenzoate]"
148,35.4,0.03,,"CCC(CC)C(=O)OCOC(=O)N(Cc1nnc(C)s1)c1cc(OC[C@H]2C[C@@H]2c2ccc(C)cn2)nc(C)n1 [Compound 19, ({(2-Methyl-6-{[(1S,2S)-2-(5-methylpyridin-2-yl)cyclopropyl]methoxy}pyrimidin-4-yl)[(5-methyl-1,3,4-thiadiazol-2-yl)methyl]carbamoyl}oxy)methyl 2-ethylbutanoate]"
21,16.8,0.07,,"Cc1ccc([C@H]2C[C@@H]2COc2cc(N(Cc3nnc(C)s3)C(=O)OCOC(=O)C3CCCCC3)nc(C)n2)nc1 [Compound 18, ({(2-Methyl-6-{[(1S,2S)-2-(5-methylpyridin-2-yl)cyclopropyl]methoxy}pyrimidin-4-yl)[(5-methyl-1,3,4-thiadiazol-2-yl)methyl]carbamoyl}oxy)methyl cyclohexanecarboxylate]"
55.8,30.6,0.05,,"Cc1ccc([C@H]2C[C@@H]2COc2cc(N(Cc3nnc(C)s3)C(=O)OCOC(=O)c3cccnc3)nc(C)n2)nc1 [Compound 10, ({(2-Methyl-6-{[(1S,2S)-2-(5-methylpyridin-2-ylcyclopropyl]methoxy}pyrimidin-4-yl)|(5-methyl-1,3,4-thiadiadol-2-yl)methyl]carbamoyl}oxy)methyl pyridine-3-carboxylate]"
27,16.8,0.08,,"Cc1ccc([C@H]2C[C@@H]2COc2cc(N(Cc3nnc(C)s3)C(=O)OCOC(=O)c3ccccc3F)nc(C)n2)nc1 [Compound 13, ({(2-Methyl-6-{[(1S,2S)-2-(5-methylpyridin-2-yl)cyclopropyl]methoxy}pyrimidin-4-yl)[(5-methyl-1,3,4-thiadiazol-2-yl)methyl]carbamoyl}oxy)methyl 2-fluorobenzoate]"
64.8,43.2,0.07,,"Cc1ccc([C@H]2C[C@@H]2COc2cc(N(Cc3nnc(C)s3)C(=O)OCOC(=O)c3ccc(F)cc3)nc(C)n2)nc1 [Compound 11, ({(2-Methyl-6-{[(1S,2S)-2-(5-methylpyridin-2-yl)cyclopropyl]methoxy}pyrimidin-4-yl)[(5-methyl-1,3,4-thiadiazol-2-yl)methyl]carbamoyl}oxy)methyl 4-fluorobenzoate]"
198,67.2,0.12,,"COc1cccc(C(=O)OCOC(=O)N(Cc2nnc(C)s2)c2cc(OC[C@H]3C[C@@H]3c3ccc(C)cn3)nc(C)n2)c1 [Compound 15, ({(2-Methyl-6-{[(1S,2S)-2-(5-methylpyridin-2-yl)cyclopropyl]methoxy}pyrimidin-4-yl)[(5-methyl-1,3,4-thiadiazol-2-yl)methyl]carbamoyl}oxy)methyl 3-methoxybenzoate]"

# From patent US12215101B2, “Pro drugs of PDE10 compounds” (Merck Sharp & Dohme LLC, priority 2021, dated 2025)
